Literature values, collected in patent US20100189788A1 (Teva Pharmaceutical Industries, Ltd., priority 2009, published 2010).

Details: such as hexane toluene and ethylacetate; in words

C#CCN[C@@H]1CCc2ccccc21 [rasagiline, R(+)-N-propargyl-1-aminoindan]
solubility in non-polar organic solvents: very soluble
